Data set [1] has as its target T1, SARS-CoV-2 spike S1 protein (Severe acute respiratory syndrome coronavirus 2, UniProt P0DTC2).
T1 construct: The fluorescent dye NT647 was used to label the SARS-CoV-2 spike S1; purchased Sino Biological 40591-V08H
Description: biochemical. The format is binding.

Data set [2] concerns 293T ACE-2 SSC22 cells (HEK 293T expressing ACE2 receptor). As to the method: The cytotoxicity of the peptides was assessed using a viability assay. […] Cells with peptides were cultured for 3 days, after which cell viability was measured using an ATP assay (Promega, G9681).

Experimental findings from article PMC10589072, “Evaluation of Potential Peptide-Based Inhibitors against SARS-CoV-2 and Variants of Concern” (BioMed Research International, 2023) are described below.

pKd: −log10 of the molar value. Where no end group is shown, it is not given here.

In the case of “IDWQFWFHYDKWDHEWEDEWYQSS-NH2 [Peptide P25]”, in data set [1], the “KD compared with ACE2-S protein affinity” value was “comparable to the observed affinity between the S protein and ACE2”. Also, the pKd in data set [1] (21°C, read-out: KD (constant of dissociation)) is 7.37. Further, the “cytotoxicity” value in data set [2] (0.125 to 4 mM, 72 hours, ATP assay, n = 3) is given as “low toxicity”. Further, the cell viability in data set [2] (72 h, 4 mM) was 91-100%.
